Results: ChEMBL document CHEMBL4619798, “Bioreducible Phosphonoamidate Pro-drug Inhibitor of Enolase: Proof of Concept Study” (ACS Med Chem Lett, 2020)

Tests used:
[1] = Cytotoxicity against human D423 cells with ENO1 deficient assessed as reduction in cell viability incubated for 5 days by crystal violet staining based spectrophotometry; conditions: 120 h
[2] = Cytotoxicity against human D423 cells with ENO1 deficient assessed as reduction in cell viability incubated for 5 days in presence of 1 % oxygen by crystal violet staining based spectrophotometry; conditions: 120 h
[3] = Stability in human plasma assessed as formation of monoester metabolite measured upto 22 hrs by NMR analysis; format: ADME, cell-free
[4] = Cytotoxicity against human D423 cells with ENO1 deficient assessed as reduction in cell viability incubated for 5 days in presence of 21 % oxygen by crystal violet staining based spectrophotometry; conditions: 120 h
[5] = Stability in human plasma assessed as formation of monoester metabolite measured at less than 30 mins by NMR analysis; format: ADME, cell-free; conditions: 0.5 h

| Stability [3] | Compound | IC50 [1] [nM] | IC50 [2] [nM] | IC50 [4] [nM] | Stability [5] |
| --- | --- | --- | --- | --- | --- |
|  | CC(C)(C)C(=O)OCOP(=O)(NCc1ccccc1)C1CCCN(O)C1=O (stereo unspecified) | 98 |  |  |  |
| Stable | CC(=O)ON1CCCC(P(=O)(NCc2ccccc2)OCc2ccc([N+](=O)[O-])o2)C1=O (stereo unspecified) |  | 136 | 299 |  |
|  | CC(C)(C)C(=O)OCOP(=O)(OCOC(=O)C(C)(C)C)C1CCCN(O)C1=O (stereo unspecified) | 38 | 201 | 79 | Unstable |
|  | O=C1C(P(=O)(O)O)CCCN1O (stereo unspecified) | 11800 |  |  |  |
|  | Cn1c(COP(=O)(NCCBr)NCCBr)cnc1[N+](=O)[O-] [EVOFOSFAMIDE] |  | 404 | 3200 |  |
